Structures can show the parent of a compound that is named as a salt. Where two headings read alike, the source gives them in different places.

The text below walks through data of patent US5811445A, “Method of preventing abnormal stimulation of AT1 and AT2 receptors” (Roussel Uclaf, priority 1994, dated 1998).

The target of assay [1] is T1, AT1 receptor of angiotensin II (Rattus norvegicus, UniProt P25095).
T1 construct: A fresh membrane preparation obtained from rat's liver is used; from tissue; host or cells: rat liver membranes
T1 sequence (P25095 1-359): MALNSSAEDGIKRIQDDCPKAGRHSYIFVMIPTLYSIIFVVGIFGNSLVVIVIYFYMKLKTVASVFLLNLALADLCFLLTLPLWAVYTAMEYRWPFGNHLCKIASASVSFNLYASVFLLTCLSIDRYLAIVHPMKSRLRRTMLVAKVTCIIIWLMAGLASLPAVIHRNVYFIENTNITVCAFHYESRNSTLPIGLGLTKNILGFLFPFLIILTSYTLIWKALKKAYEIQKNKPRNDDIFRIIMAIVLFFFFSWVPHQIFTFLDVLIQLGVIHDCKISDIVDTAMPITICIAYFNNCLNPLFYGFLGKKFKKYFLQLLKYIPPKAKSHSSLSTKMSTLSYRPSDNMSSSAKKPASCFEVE
Description: Test on the AT1 receptor of angiotensin II (displacement of 125I angiotensin II, rat liver membranes). The format is binding. The procedure:
1 - Test on the AT1 -receptor of angiotensin II
A fresh membrane preparation obtained from rat's liver is used. The tissue is ground up in a polytron in a 50 mM Tris buffer pH 7.4, the grinding is followed by 3 centrifugations at 30,000 g for 15 minutes with intermediate take up of the pellets in the Tris buffer pH 7.4.
(The product is first tested with 3×10^-5 M three times). When the tested product displaces more than 50% of the radioactivity specifically bound to the receptor, it is tested again according to a range of 7 concentrations in order to determine the concentration which inhibits by 50% the radioactivity specifically bound to the receptor. In this way the 50% inhibitory concentration is determined).
(§1) After incubation at 25° C. for 150 minutes, placing in a water-bath at 0° C. for 5 minutes, filtration under vacuum, and rinsing with Tris buffer pH 7.4, the radioactivity is counted in the presence of a scintillating solid.
For orientation: Loss of bound radioactivity is the signal in a displacement assay; it reports binding, not function.

Assay [2] concerns the target T2, AT2 receptor of angiotensin II (Oryctolagus cuniculus, UniProt G1T351).
T2 construct: A fresh membrane preparation obtained from rabbit's uterus is used; from tissue; host or cells: uterus membranes of estradiol-treated rabbits
T2 sequence (G1T351 1-363): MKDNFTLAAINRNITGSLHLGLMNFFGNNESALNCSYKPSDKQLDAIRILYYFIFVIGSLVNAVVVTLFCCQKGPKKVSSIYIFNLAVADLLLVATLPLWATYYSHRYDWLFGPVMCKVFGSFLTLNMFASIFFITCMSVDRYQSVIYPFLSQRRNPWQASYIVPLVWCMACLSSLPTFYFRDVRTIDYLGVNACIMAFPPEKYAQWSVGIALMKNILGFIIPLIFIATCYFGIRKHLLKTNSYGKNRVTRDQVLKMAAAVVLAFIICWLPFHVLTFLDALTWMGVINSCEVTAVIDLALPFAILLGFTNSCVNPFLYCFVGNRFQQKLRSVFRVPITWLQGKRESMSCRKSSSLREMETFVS
Description: Test on the AT2 receptor of angiotensin II (displacement of 125I angiotensin II, rabbit uterus membranes). The format is binding. The protocol:
2) Test on the AT2 receptor of angiotensin II
The tissue is ground up in a polytron in a 50 mM Tris buffer pH 7.4, and the grinding is followed by 3 centrifugations at 30,000 g for 15 minutes, with intermediate take up of the pellets in the Tris buffer pH 7.4.
The homogenate obtained is preincubated for 20 minutes at 25° C. in the presence of 10 mM dithiothreitol, then brought back to 0°-4° C.
The product is first tested at 3.10^-5 M three times. When the tested product displaces more than 50% of the radioactivity specifically bound to the receptor, it is tested again according to a range of 7 concentrations in order to determine the concentration which inhibits by 50% the radioactivity specifically bound to the receptor. In this way the 50% inhibitory concentration is determined.
as §1

Where [3] appears, read: rat liver membrane, 125I angiotensin II, 25° C., 150 minutes, read-out: AT1 Receptor IC50.
The mark [4] stands for this setting: products P1 to P13, expressed in nM, read-out: On AT1 receptor IC50.
Setting [5] is: products P1 to P13, expressed in nM, read-out: On AT2 receptor IC50.
[6] abbreviates: rabbit uterus membrane (estradiol pre-treated), 125I angiotensin II, 25° C., 150 minutes, read-out: AT2 Receptor IC50.

As to `CCCCc1nc(Cl)c(C(=O)O)n1Cc1ccc(-c2ccccc2S(=O)(=O)NC(=O)NCc2ccccc2)cc1` [Example 59], the IC50 – broadly, the concentration needed to halve the response being measured – in assay [1] (setting [3]) amounted to 0.08 nM.

With `CCCCc1nc(SC)c(C(=O)O)n1Cc1ccc(-c2ccccc2S(=O)(=O)NC(=O)NC(Cc2ccccc2)C(=O)O)cc1` (stereo not shown) [Example P7, 2-butyl 1-[(2'-(((((1-(1-carboxy 2-phenyl)ethyl)amino)carbonyl)amino)sulphonyl) (1,1'-biphenyl) 4-yl)methyl] 4-methylthio 1H-imidazole 5-carboxylic acid], the IC50 in assay [1] (setting [4]) is 0.4 nM; in assay [2] (setting [5]) it was 49 nM.

With `CCCc1nc(SC)c(C(O)C(=O)O)n1Cc1ccc(-c2ccccc2S(=O)(=O)NC(=O)NCc2ccccc2)cc1` (stereo not shown) [Example 21], the IC50 in assay [1] (setting [3]) was 2.5 nM; in assay [2] (setting [6]), 6.5 nM.

`CCCc1nc(SC(F)F)c(C(=O)O)n1Cc1ccc(-c2ccccc2S(=O)(=O)NC(=O)NCCC2=CCCCC2)cc1` [Example 56, 1-((2'-(((((2-cyclohexen-1-yl-ethyl)amino)carbonyl)amino)sulphonyl) (1,1'-biphenyl) 4-yl)methyl) 4-((difluoromethyl)thio) 2-propyl 1H-imidazole 5-carboxylic acid]: the IC50 in assay [2] (setting [6]) was 5.8 nM.

Take `CCCCc1nc(SC)c(C(=O)O)n1Cc1ccc(-c2ccccc2S(=O)(=O)NC(=O)OCc2ccsc2)cc1` [Example P9, 2-butyl 4-(methylthio) 1-[(2'-((((3-thienyl)methoxycarbonyl)amino)sulphonyl) (1,1'-biphenyl) 4-yl)methyl] 1H-imidazole 5-carboxylic acid]: the IC50 stood at 0.19 nM in assay [1] (setting [4]) and 53 nM in assay [2] (setting [5]).

In the case of `CCCCc1nc(SC)c(C(=O)O)n1Cc1ccc(-c2ccccc2S(=O)(=O)NC(=O)OCC2CCCCC2)cc1` [Example P11, 2-butyl 1-[(2'-((((cyclohexyl)methoxycarbonyl)amino)sulphonyl) (1,1'-biphenyl) 4-yl)methyl] 4-methylthio 1H-imidazole 5-carboxylic acid], the IC50 in assay [1] (setting [4]) is 0.14 nM; in assay [2] (setting [5]) it was 24 nM.

With `CCCCc1nc(SC)c(C(C)(O)C(=O)O)n1Cc1ccc(-c2ccccc2S(=O)(=O)NC(=O)NCC2CCCCC2)cc1` (stereo not drawn) [Example 13, 2-butyl 1-[(2'-(((((cyclohexylmethyl)amino)arbonyl)amino)sulphonyl) (1,1'-biphenyl) 4-yl)methyl] alpha-hydroxy alpha-methyl 4-(methylthio) 1H-imidazole 5-acetic acid], the IC50 in assay [1] (setting [3]) was 6.3 nM; in assay [2] (setting [6]) it was 1.9 nM.

Take `CCCCc1nc(OC)c(C=O)n1Cc1ccc(-c2ccccc2S(=O)(=O)NC(=O)OCc2ccccc2)cc1` [Example P13, (phenylmethyl) ((4'-((2-butyl 5-formyl 4-methoxy 1H-imidazol 1-yl)methyl) (1,1'-biphenyl) 2-yl)sulphonyl) carbamate]: the IC50 in assay [1] (setting [4]) was 5.9 nM; in assay [2] (setting [5]), 63 nM.

In the case of `CCCCc1nc(SC)c(C(C)(O)C(=O)O)n1Cc1ccc(-c2ccccc2S(=O)(=O)NC(=O)NCCC)cc1` (stereo not drawn) [Example 9, 2-butyl alpha-hydroxy alpha-methyl 4-(methylthio) 1-[(2'-((((propylamino)carbonyl)amino)sulphonyl) (1,1'-biphenyl) 4-yl)methyl] 1H-imidazole 5-acetic acid], the concentration for half-maximal inhibition (IC50) in assay [1] (setting [3]) worked out at 3.4 nM; in assay [2] (setting [6]), 8.5 nM.

`CCCCc1nc(SC)c(C(=O)O)n1Cc1ccc(-c2ccccc2S(=O)(=O)NC(=O)OCC2CC=CCC2)cc1` (stereo not shown) [Example P10, 2-butyl 1-[(2'-((((cyclohexen 4-yl)methoxycarbonyl)amino)sulphonyl) (1,1'-biphenyl) 4-yl)methyl] 4-methylthio 1H-imidazole 5-carboxylic acid]: the IC50 in assay [1] (setting [4]) stood at 0.7 nM; in assay [2] (setting [5]), 31 nM.

In the case of `CCc1nc(SC)c(C(=O)O)n1Cc1ccc(-c2ccccc2S(=O)(=O)NC(=O)NCc2ccccc2)cc1` [Example 44, 2-ethyl 4-(methylthio) 1-((2'-(((((phenylmethyl)amino)carbonyl)amino)sulphonyl) (1,1'-biphenyl) 4-yl)methyl) 1H-imidazole 5-carboxylic acid], in assay [1] (setting [3]), the concentration for half-maximal inhibition (IC50) amounted to 0.06 nM.

On to `CCCc1nc(SC)c(C(O)(C(=O)O)c2ccccc2)n1Cc1ccc(-c2ccccc2S(=O)(=O)NC(=O)NCc2ccccc2)cc1` (stereo not drawn) [Example 34, alpha-hydroxy 4-(methylthio) alpha-phenyl 1-((2'-(((((phenylmethyl)amino)carbonyl)amino)sulphonyl) (1,1'-biphenyl) 4-yl)methyl) 2-propyl 1H-imidazole 5-acetic acid], for which the IC50 in assay [1] (setting [3]) amounted to 0.7 nM; in assay [2] (setting [6]), 2.1 nM.

`CCc1nc(SC)c(C(=O)O)n1Cc1ccc(-c2ccccc2S(=O)(=O)NC(=O)NCC2CCCCC2)cc1` [Example 69, potassium 1-((2'-(((((cyclohexylmethyl)amino)carbonyl)amino)sulphonyl) (1,1'-biphenyl 4-yl)methyl) 2-ethyl 4-(methylthio) 1H-imidazole 5-carboxylate (potassium salt)]: the IC50 in assay [2] (setting [6]) was found to be 1.3 nM.

As to `CCCCc1nc(SC)c(C(=O)O)n1Cc1ccc(-c2ccccc2S(=O)(=O)NC(=O)OCc2ccccc2)cc1` [Example P12, 2-butyl 4-(methylthio) 1-[(2'-(((phenylmethoxycarbonyl)amino)sulphonyl) (1,1'-biphenyl) 4-yl)methyl] 1H-imidazole 5-carboxylic acid], the IC50 in assay [1] (setting [4]) was found to be 0.8 nM; in assay [2] (setting [5]), 54 nM.

Turning to `CCCCc1nc(SC)c(C(=O)O)n1Cc1ccc(-c2ccccc2S(=O)(=O)NC(=O)OCc2cccs2)cc1` [Example P8, 2-butyl 4-(methylthio) 1-[(2'-((((2-thienyl)methoxycarbonyl)amino)sulphonyl) (1,1'-biphenyl) 4-yl)methyl] 1H-imidazole 5-carboxylic acid], the IC50 was 0.14 nM in assay [1] (setting [4]) and 17 nM in assay [2] (setting [5]).

On to `CCCCc1nc(SC)c(C(=O)O)n1Cc1ccc(-c2ccccc2S(=O)(=O)NC(=O)NCc2ccc(F)cc2)cc1` [Example P6, 2-butyl 1-[(2'-((((((4-fluoro)phenylmethyl)amino)carbonyl)amino)sulphonyl) (1,1,1-biphenyl) 4-yl)methyl] 4-methylthio 1H-imidazole 5-carboxylic acid], for which the values for the concentration for half-maximal inhibition (IC50) in assay [1] (setting [4]) and in assay [2] (setting [5]) were 0.27 nM and 10 nM, respectively.

As for `CCCc1nc(SC)c(C(=O)O)n1Cc1ccc(-c2ccccc2S(=O)(=O)NC(=O)Nc2ccc(C)cc2)cc1` [Example 63, 1-((2'-(((((4-methylphenyl)amino)carbonyl)amino)sulphonyl) (1,1'-biphenyl) 4-yl)methyl) 4-(methylthio) 2-propyl 1H-imidazole 5-carboxylic acid], the IC50 in assay [2] (setting [6]) turned out to be 3.5 nM.

In the case of `CCCCc1nc(SC)c(C(=O)O)n1Cc1ccc(-c2ccccc2S(=O)(=O)NC(=O)NCc2ccccc2)cc1` [Example P2, 2-butyl 4-(methylthio) 1-[(2'-(((((phenylmethyl)amino)carbonyl)amino)sulphonyl) (1,1'-biphenyl) 4-yl)methyl] 1H-imidazole 5-carboxylic acid], the half-maximal inhibitory concentration (IC50) was found to be 0.1 nM in assay [1] (setting [4]) and 14 nM in assay [2] (setting [5]).

In the case of `CCCCc1nc(SC)c(C(C)(O)C(=O)O)n1Cc1ccc(-c2ccccc2S(=O)(=O)NC(=O)NCc2ccccc2)cc1` (stereo not shown) [Example 11], the 50% inhibitory concentration (IC50) in assay [1] (setting [3]) was 24 nM; in assay [2] (setting [6]), 1.6 nM.

Turning to `CCCc1nc(SC(F)F)c(C(=O)O)n1Cc1ccc(-c2ccccc2S(=O)(=O)NC(=O)CCC2CCCC2)cc1` [Example 54], the 50% inhibitory concentration (IC50) in assay [2] (setting [6]) came to 2.1 nM.
